Patent US9464064B2, “HCV helicase inhibitors and methods of use thereof” (University of Kansas, priority 2011, dated 2016)
Non-standard residues stand in square brackets, D forms with d. Residues, ends and D or L forms follow the SMILES beside them. ξ: configuration not given here. *: point of attachment. ξNMe2Val = CC(C)C(C(=O)*)N(C)C; NMeV = CN[CH](C(=O)O)C(C)C; NHBn = c1ccc(CN*)cc1

Molecular target: T1, HCV NS3 helicase NS3h_1b(con1) (Hepatitis C virus genotype 1b, UniProt Q9WMX2)
T1 construct: truncated C-terminally His-tagged NS3 proteins lacking the N-terminal protease, called NS3h; His-tag (C); made in house
T1 sequence (Q9WMX2 1192-1657): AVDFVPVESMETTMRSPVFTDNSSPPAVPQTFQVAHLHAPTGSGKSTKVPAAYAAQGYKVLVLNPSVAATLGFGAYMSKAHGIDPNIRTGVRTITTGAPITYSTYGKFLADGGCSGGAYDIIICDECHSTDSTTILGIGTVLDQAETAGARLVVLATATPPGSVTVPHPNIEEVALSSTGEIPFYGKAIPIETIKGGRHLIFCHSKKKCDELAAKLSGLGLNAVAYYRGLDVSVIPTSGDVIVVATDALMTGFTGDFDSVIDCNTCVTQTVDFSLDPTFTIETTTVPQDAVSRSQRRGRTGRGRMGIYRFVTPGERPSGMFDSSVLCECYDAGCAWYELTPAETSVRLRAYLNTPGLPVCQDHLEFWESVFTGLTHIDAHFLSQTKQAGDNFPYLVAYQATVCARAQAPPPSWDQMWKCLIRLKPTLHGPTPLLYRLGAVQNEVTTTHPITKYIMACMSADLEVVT
Assay: MBHA screen of NCI mechanistic set library at 20 μM (percent inhibition, compound interference)
Format: biochemical
Details: compounds at 20 μM; for Inh. (%) (Inhibition): calculated from Equation 1
Summary of the method: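 Molecular beacon-based DNA unwinding assay; compounds screened at 20 μM in triplicate, with DMSO-only negative and 500 nM dT20 positive controls. Fluorescence (ex 643/em 670 nm) was read before and 30 min after adding ATP to 1 mM. Percent inhibition came from the change relative to DMSO controls; interference from pre-ATP fluorescence versus DMSO controls.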

[1] = MBHA with DNA substrate, assay interference calculated with Equation 2
[2] = assay interference calculated with Equation 2 (fluorescence vs DMSO-only controls before ATP)

| SMILES | Int.* (Ratio) (Interference) [1] | Inh. (%) (Inhibition) (MBHA with DNA substrate) | Inh. (%) (Inhibition) (MBHA with a DNA substrate) | Int.* (Ratio) (Interference) [2] |
| --- | --- | --- | --- | --- |
| O=C1Cc2c([nH]c3ccc(Br)cc23)-c2ccccc2N1 [Compound 664704] | 0.98 Ratio | −10.6% |  |  |
| CCCCCCC1CC(=O)C1(Cl)Cl (stereo not drawn) [Compound 666526] | 0.97 Ratio | −1.3% |  |  |
| CCOC(=O)Cc1cc(=O)oc2cc(O)ccc12 [Compound 667235] | 1.06 Ratio | 12.3% |  |  |
| CN(C)c1cccc(/C=C(\C#N)c2ccccc2)c1 [Compound 667251] |  |  | −7.0% | 1.09 Ratio |
| S=C1Nc2cnc3ccccc3c2SC1c1ccccc1 (stereo not drawn) [Compound 667467] | 0.89 Ratio | 33.3% |  |  |
| C=C1CC(Cn2cc(Br)c(=O)[nH]c2=O)(c2ccc(-c3ccccc3)cc2)OC1=O (stereo not drawn) [Compound 668260] | 0.94 Ratio | 0.4% |  |  |
| C=C1CC(COc2cc(=O)oc3ccccc23)(c2ccccc2)OC1=O (stereo not drawn) [Compound 668270] | 0.83 Ratio | 28.1% |  |  |
| CC(C)C(NC(=O)C(C(C)C)N(C)C)C(=O)N(C)C(C(=O)N1CCCC1C(=O)N1CCCC1C(=O)NCc1ccccc1)C(C)C.Cl (stereo not drawn) [Compound 669356] (ξNMe2Val-V[NMeV]PP-NHBn; configuration not given here) | 1.08 Ratio | −9.2% |  |  |
| O=C(ON=C1c2ccccc2C(Br)C(Br)c2ccccc21)c1ccccc1 (stereo not drawn) [Compound 670140] | 0.95 Ratio | 15.2% |  |  |
| CN(C)CCOC1(Cc2ccc(Cl)cc2Cl)CCC(C(C)(C)C)CC1.Cl (stereo not drawn) [Compound 670224] | 0.88 Ratio | 17.9% |  |  |
| Cc1ccc(CC2(OCCN(C)C)CCC(C(C)(C)C)CC2)cc1.O=C(O)/C=C/C(=O)O (stereo not drawn) [Compound 670225] | 1.04 Ratio | −16.0% |  |  |
| CN(C)CCOC1(Cc2ccc(F)cc2)CCC(C(C)(C)C)CC1.O=C(O)/C=C/C(=O)O (stereo not drawn) [Compound 670226] | 1.11 Ratio | −2.6% |  |  |
| Cc1ccc(CC2(OCCN(C)C)CCC(C(C)(C)C)CC2)cc1.O=C(O)/C=C/C(=O)O (stereo not drawn) [Compound 670229] |  |  | −28.8% | 1.17 Ratio |
| CC(=O)c1sc2c(c1OC(=O)c1ccc(Cl)cc1Cl)c(=O)n(-c1ccccc1)c(=S)n2-c1ccccc1 [Compound 671136] | 0.90 Ratio | 1.2% |  |  |
| COc1ccc(N=C2C(=Nc3ccc(OC)cc3)N(c3ccc(N(C)C)cc3)C(=S)N2c2ccc(OC)cc2)cc1 [Compound 671394] |  |  | −5.4% | 0.86 Ratio |
| N[C@@H](Cc1ccc2oc3cc(=O)c4ccccc4c-3nc2c1)C(=O)O [Compound 672425] | 0.89 Ratio | −11.4% |  |  |
| COC(=O)C1CCC(=O)N1C(c1ccc(OC)cc1)c1cc(OC)c(OC)c(OC)c1 (stereo not drawn) [Compound 673622] | 1.08 Ratio | −9.6% |  |  |
| NC(=O)N/N=C1\CC2C3CC4C2C4C13 (stereo not drawn) [Compound 673912] |  |  | −4.0% | 1.04 Ratio |
| Cc1cc(-c2nc3ccccc3s2)ccc1N [Compound 674495] | 0.98 Ratio | −7.5% |  |  |
| CCCN(CCC)C(=S)Sc1nc(C)nc(N2CCN(c3nc(C)nc(SC(=S)N(CCC)CCC)c3[N+](=O)[O-])CC2)c1[N+](=O)[O-] [Compound 675593] |  |  | −3.8% | 1.04 Ratio |
| COc1ccccc1[S+]([O-])Nc1ccccc1 (stereo not drawn) [Compound 676561] | 0.96 Ratio | 17.1% |  |  |
| O=C(O)/C=C\C(=O)O.[N-]=[N+]=Nc1ccc2c(c1)Sc1ccccc1N2CCCCN1CCN(Cc2ccc(C(=O)c3ccccc3)cc2)CC1 [Compound 676963] | 0.46 Ratio | −1.7% |  |  |
| COc1ccc(NC(=O)CC(=O)N2N=C(C)C(N=Nc3ccc(S(=O)(=O)c4ccc(N=NC5C(=O)N(C(=O)CC(=O)Nc6ccc(OC)cc6)N=C5C)cc4)cc3)C2=O)cc1 (stereo not drawn) [Compound 677392] | 1.00 Ratio | −18.1% |  |  |

| SMILES | Int.* (Ratio) (Interference) [1] | Inh. (%) (Inhibition) (MBHA with DNA substrate) | Inh. (%) (Inhibition) (MBHA with a DNA substrate) | Int.* (Ratio) (Interference) [2] |
| --- | --- | --- | --- | --- |
| COc1ccc(OC)c2nc3c(C(=O)NCCN(C)C)cccc3nc12.Cl [Compound 678917] | 0.89 Ratio | 28.1% |  |  |
| CN(C)CCNC(=O)c1cccc2[nH]c(-c3ccncc3)nc12.Cl [Compound 678932] | 1.05 Ratio | 0.6% |  |  |
| COC(=O)c1c[nH]c2c1-c1cc(C(=O)OCc3ccccc3)n(S(=O)(=O)c3ccc(C)cc3)c1C(=O)C2=O [Compound 679524] | 0.85 Ratio | −2.5% |  |  |
| COC(=O)c1cc(-c2c[nH]cc2C(=O)OCc2ccccc2)cn1S(=O)(=O)c1ccc(C)cc1 [Compound 679527] | 0.98 Ratio | 1.5% |  |  |
| CC1=C/C(=N\OCC(=O)O)CC(c2ccc(C(C)C)cc2)C1 (stereo not drawn) [Compound 680506] |  |  | 10.2% | 0.92 Ratio |
| Cl.NC1(CCNC(=O)c2ccccc2)CCN(C(=O)c2ccccc2)CC1 [Compound 680509] |  |  | −35.7% | 0.99 Ratio |
| Cc1cc(N(C)C)ccc1N=Nc1ccc2ncccc2c1 [Compound 680516] | 0.93 Ratio | −1.4% |  |  |
| N#CC(NCc1cccc(CNC(C#N)c2ccccc2)c1)c1ccccc1 (stereo not drawn) [Compound 681730] | 0.88 Ratio | −2.0% |  |  |
| CCC(C#N)(c1ccccc1)N(CCc1ccccc1)C(=O)c1ccccc1 (stereo not drawn) [Compound 681741] | 0.92 Ratio | −16.2% |  |  |
| N#CC(c1ccccc1)N(CCCCCCN(C(=O)c1ccccc1)C(C#N)c1ccccc1)C(=O)c1ccccc1 (stereo not drawn) [Compound 681744] | 0.98 Ratio | 20.4% |  |  |
| COc1ccc(-c2cc(-c3ccccc3)nc3c2CC(=O)Nc2ccccc2-3)cc1OC [Compound 682769] | 0.96 Ratio | −7.3% |  |  |
| NC1N=C(c2ccc(Cl)cc2)C2=C(N1)c1ccccc1CC2 (stereo not drawn) [Compound 682864] | 0.97 Ratio | −1.8% |  |  |
| COc1ccc2cc(CN3CCC(C4CCN(Cc5ccc6cc(OC)ccc6c5)CC4)CC3)ccc2c1.Cl [Compound 683792] | 0.93 Ratio | −8.0% |  |  |
| O=C1Cc2c(-c3ccccc3)cc(-c3cccc(Cl)c3)nc2-c2ccccc2N1 [Compound 684480] |  |  | −35.3% | 1.04 Ratio |
| CCOC(=O)NC(Nc1ccc(F)cc1)(C(=O)OCC)C(F)(F)F (stereo not drawn) [Compound 684845] |  |  | −5.0% | 0.91 Ratio |
| COC(=O)C1=C(C(=O)OC)SC2(S1)C(C(=O)OC)=C(C(=O)OC)Sc1c2ssc1=O [Compound 686349] | 0.85 Ratio | −14.4% |  |  |
| CC(C)[Si]1(C(C)C)OCC2OC(n3cnc4c(N)ncnc43)C(N)C2O[Si](C(C)C)(C(C)C)O1 (stereo not drawn) [Compound 687330] | 0.91 Ratio | −12.1% |  |  |
| COc1ccc(/C=C2\CCCc3ccccc3C2=O)cc1 [Compound 687667] |  |  | −29.0% | 1.00 Ratio |
| C=CC(=O)N1C/C(=C\c2ccc(Cl)cc2)C(=O)/C(=C/c2ccc(Cl)cc2)C1 [Compound 687849] |  |  | −5.2% | 0.93 Ratio |
| C=CC(=O)N1C/C(=C\c2ccc([N+](=O)[O-])cc2)C(=O)/C(=C/c2ccc([N+](=O)[O-])cc2)C1 [Compound 687852] | 0.94 Ratio | −11.6% |  |  |
| CNC(=O)c1cc(NC(=O)N(CCC#N)CCN(C(=O)N[C@@H](Cc2ccccc2)C(=O)N[C@@H](CC(C)C)C(=O)NC)c2ccccc2)ccc1OC [Compound 688363] | 0.96 Ratio | −1.6% |  |  |
| COc1cc(OC)c2c(C)cc(=O)oc2c1 [Compound 688795] |  |  | 9.3% | 1.02 Ratio |
